Laboratory results: US8618154B2, “LXR modulators” (Bristol-Myers Squibb Company, priority 2009, dated 2013)

Tested on: ABCA1 gene expression
Assay: Human whole blood assay (hWBA), ABCA1 mRNA induction
Type: cell-based
Details: Homo sapiens; full LXRα and LXRβ pan agonist used as reference; read-out: EC50 of reference compound
Method: Human whole blood was collected in EDTA containing tubes and 0.5 mL aliquots were immediately mixed in a 96 well block with the appropriate serial dilution of test compound, in 0.5% DMSO. Compounds were incubated with blood at 37° C. with constant rocking for 4 hours. After incubation, cells were lysed in ABI Nucleic Acid Purification Lysis Solution (Applied Biosystems catalog #4305895) and frozen at −80° C. Following cell lysis, total RNA was purified using an ABI 6100 RNA prep station according to the protocol provided by the manufacturer. cDNAs were synthesized, and mRNAs were quantitated using SYBR-Green Quantitative PCR (Q-PCR) on an ABI Prism 7900HT Sequence Detection System and reagents from Quanta Bioscience Inc (Quanta Bioscience catalog #95047 and 95055).
The quantity of each mRNA was determined by the ΔΔCT method (Michael W. Pfaffl. A new mathematical model for relative quantification in real-time RT-PCR. Nucleic Acids Research, 2001, Vol. 29, No. 9 e45) and normalized to the quantity of two control mRNAs, i.e. ribosomal protein L-30 (L-30) and beta-2-microglobulin (B2M). The induction of ABCA1 and ABCG1 by test compound was graphed as a percent of the reference compound, 2-(4-(5-(5-cyano-1-(2,4-difluorobenzyl)-6-oxo-4-(trifluoromethyl)-1,6-dihydropyridin-2-yl)thiophen-2-yl)-3-methylphenyl)acetic acid, and potency (EC50) and activity (% MAX) were calculated by fitting a sigmoidal response curve as a function of log transformed compound concentration using XLFit software according to the equation y=A+((B−A)/(1+((C/x)^D))).

EC50: 1 to 2 µM
SMILES: Cc1cc(CC(=O)O)ccc1-c1ccc(-c2cc(C(F)(F)F)c(C#N)c(=O)n2Cc2ccc(F)cc2F)s1 [2-(4-(5-(5-cyano-1-(2,4-difluorobenzyl)-6-oxo-4-(trifluoromethyl)-1,6-dihydropyridin-2-yl)thiophen-2-yl)-3-methylphenyl)acetic acid, reference compound]
